The results in this text go back to publication PMC11539218 (Antimicrobial Agents and Chemotherapy, 2024).

Holding throughout (type): cell-based, Leishmania (L.) infantum
Data set [1] concerns L. (L.) infantum promastigotes. Kind of data set: Short-time incubation IC50 assay in promastigotes (MTT). The conditions noted are these: Leishmania infantum, promastigotes 2 × 10^6/well, 4 h of treatment, read-out: IC50 (50% inhibitory concentration), short-time incubation. As to the method: All experiments were performed with L. (L.) infantum promastigotes in the late-grown phase using a Hanks-Balanced Salt Solution medium supplemented with D-glucose (10 mM), exceptions were described. To establish the ideal time and concentration to investigate the mechanism of action (MoA), a new IC50 assay was performed in promastigotes in short-time incubation. Parasites (2 × 10^6/well) were treated with compound 1 serially diluted (1.6 to 300 µM) for 1, 2, 3, and 4 h, at 24°C. Parasite viability was determined using the MTT colorimetric method ([16]). Untreated cells were employed as a negative control.

In data set [2] the test system is L. (L.) infantum promastigotes. Kind of data set: Plasma membrane permeability (Sytox Green). Particulars: compound 1 169.2 µM, Triton X-100 0.5%, up to 4 h. The protocol: Promastigotes (2 × 10^6/well) were pretreated with Sytox Green (1 µM) for 15 min, at 24°C. Then, compound 1 (169.2 µM) was added and the fluorescence was monitored every 20 min up to 4 h in a spectrofluorometer, with excitation and emission wavelengths of 485 and 535 nm, respectively ([17]). Triton X-100 (0.5% vol/vol) was employed as positive control and untreated parasites as negative control ([18]).

Data set [3] has as its system L. (L.) infantum promastigotes. Briefly: Total proteins of the parasite. Particulars: promastigotes after treatment.
The test system of data set [4] is L. (L.) infantum promastigotes. Briefly: Cell cycle (propidium iodide, flow cytometry). Particulars: 24 h; compound 1 169.2 µM, miltefosine 25 µM. As to the method:
Promastigotes (2 × 10^6/well) in exponential phase, were treated with compound 1 (169.2 µM) in M199 medium supplemented with 10% FBS and 0.25% hemin, pH 7.2, for 24 h at 24°C. In sequence, 70% (vol/vol) ice-cold ethanol was used for cell permeabilization overnight at −20°C. Then, the parasites were incubated with propidium iodide (10 µg/mL) and RNase A (20 µg/mL) for 30 min. […] Miltefosine (25 µM) was employed as positive control and untreated parasites as negative control ([25]).
On the technique in general: A flow cytometer gives signals particle by particle.

Data set [5] concerns L. (L.) infantum promastigotes. Briefly: Adenosine triphosphate levels (luciferase bioluminescence). The conditions noted are these: 169.2 µM; 2 and 4 h; vs untreated parasites. As to the method:
Promastigotes (2 × 10^6/well) were treated with compound 1 (169.2 µM) for 2 and 4 h, at 24°C. Subsequently, the parasites were lysed with Triton X-100 (0.5%) and mixed with ATP Determination Kit standard reaction buffer (1 mM DTT, 0.5 mM luciferin, and 1.25 µg/mL luciferase), according to the manufacturer’s instructions. […] CCCP (10 µM) was employed as positive control and untreated parasites as negative control.

Data set [6] has as its system L. (L.) infantum promastigotes. Kind of data set: DNA content / integrity (agarose gel electrophoresis). Particulars: compound 1 169.2 µM, H2O2 10 mM; 24 h; 2% agarose gel. The protocol:
Promastigotes (1 × 10^7/well) were treated with compound 1 (169.2 μM) in M199 medium supplemented with 10% FBS and 0.25% hemin, pH 7.2, for 24 h at 24°C. Then, the genetic material was extracted using the QIAamp DNA Mini Kit, according to the manufacturer’s instructions. Total DNA quantification was performed in a NanoDrop ND-1000 spectrophotometer (260/280 nm). The purified genetic material (300 ng) was analyzed by electrophoresis for 1 h at […] in a 2% agarose gel with ethidium bromide (0.5 µg/mL). Visualization was performed under UV light in a MiniBIS Pro transilluminator (DNR Bio Imaging System) ([21]). H2O2 (10 mM) was employed as positive control and untreated parasites as negative control ([26]).

The subject of data set [7] is L. (L.) infantum promastigotes. Kind of data set: Ultrastructural studies (transmission electron microscopy). The conditions noted are these: 169.2 µM, TEM. As to the method:
Promastigotes (3 × 10^7 parasites/well) were treated with compound 1 (169.2 µM) for 2, 4, and 6 h at 24°C. Subsequently, parasites were fixed in glutaraldehyde solution (2.5% wt/vol) and post-fixed in osmium tetroxide (1% wt/vol). The samples were gradually dehydrated in acetone and embedded in Epon 812 resin. Ultrathin sections were stained with uranyl acetate and lead citrate ([27]). The material was analyzed under a transmission electron microscope (JEOL JEM-1011). Untreated parasites were employed as a negative control.

The test system of data set [8] is L. (L.) infantum promastigotes. The conditions noted are these: compound 1 169.2 µM, sodium azide 10 mM; 2 and 4 h; H2DCFDA; vs untreated. As to the method: Promastigotes (2 × 10^6/well) were treated with compound 1 (169.2 µM) for 2 and 4 h, at 24°C. Later, H2DCFDA (5 µM) was added and the parasites were incubated for 15 min. Fluorescence was monitored in a spectrofluorometer with excitation and emission wavelengths of 485 and 535 nm, respectively ([19]). Sodium azide (10 mM) was employed as positive control and untreated parasites as negative control.

The subject of data set [9] is L. (L.) infantum promastigotes. Kind of data set: Intracellular Ca2+ (Fluo-4 AM). The conditions noted are these: 169.2 µM, from 20 min up to 4 h, vs untreated. As to the method:
Promastigotes (2 × 10^6/well) were pretreated with Fluo-4 AM (5 µM) in PBS, for 1 h at 24°C. Then, parasites were treated with compound 1 (169.2 µM). Fluorescence was measured every 20 min up to 4 h in a spectrofluorometer, with excitation and emission wavelengths of 485 nm and 535 nm, respectively ([21]). Triton X-100 0.5% (vol/vol) was employed as positive control and untreated parasites as negative control.

Molecules are shown by their SMILES. pIC50: −log10 of the molar value.

Take `C=CCc1cc(OC)c(OCc2ccc(OC)cc2)c(Oc2ccc(CN3CCOCC3)cc2OC)c1` [compound 1, 4-(4-(5-allyl-3-methoxy-2-((4-methoxybenzyl)oxy)phenoxy)-3-methoxybenzyl)morpholine]: in data set [1], the pIC50 is 3.77. For the same molecule, the plasma membrane permeability result in data set [2] was “no alteration”. For the same molecule, in data set [3], the total protein level result is listed as “increased level of total protein”. In data set [4], the “Proportion of parasites in different phases of the cell cycle (% ± SD): G0/G1” value is given as 46.6 ± 0.7 %, the “Proportion of parasites in different phases of the cell cycle (% ± SD): M/G2” value is listed as 17.9 ± 0.5%, the “Proportion of parasites in different phases of the cell cycle (% ± SD): S” value is given as 11.1 ± 1.3% and the “Proportion of parasites in different phases of the cell cycle (% ± SD): Sub G0” value was 7.5 ± 0.7 %. Besides, the ATP concentration entry in [5] was “significant reduction”. The “integrity of the genetic content (DNA)” value in data set [6] is reported as “no alterations”. For the same molecule, the ultrastructural alterations result in data set [7] (2 h) is recorded as “increased volume of the mitochondria”. In addition, the ultrastructural alterations result in data set [7] (all studied times (2, 4, 6 h)) is “autophagic vacuoles were observed in the cytoplasm”. In [7] (later times of incubation (4 h, 6 h)), the ultrastructural alterations entry is recorded as “losses of mitochondrial cristae”. In [8], the ROS levels entry is recorded as “significant reduction”. Also, the “intracellular Ca2+ level” value in data set [9] was “fast and increased Ca^2+ level”.
